# Experimental data reported in patent US7056907B2, “Mandelic acid derivatives and their use as thrombin inhibitors” (AstraZeneca AB, priority 2001, dated 2006).
# Columns and labels:
# [1] = tested on: pooled normal human citrated plasma; test: Test D: Determination of Activated Partial Thromboplastin Time (APTT); format: biochemical; conditions: read-out: IC50 APTT (concentration of inhibitor in human plasma that doubles the Activated Partial Thromboplastin Time)
# Method: Determination of Activated Partial Thromboplastin Time (APTT)
# APTT is determined in pooled normal human citrated plasma with the reagent PTT Automated 5 manufactured by Stago. The inhibitors are added to the plasma (10 μL inhibitor solution to 90 μL plasma) and incubated with the APTT reagent for 3 minutes followed by the addition of 100 μL of calcium chloride solution (0.025 M) and APTT is determined by use of the coagulation analyser KC10 (Amelung) according to the instructions of the reagent producer.
# (§1) The clotting time is expressed as absolute values (seconds) as well as the ratio of APTT without inhibitor (APTT0) to APTT with inhibitor (APTTi). The latter ratios (range 1–0) are plotted against the concentration of inhibitor (log transformed) and fitted to sigmoidal dose-response curves according to the equation y=a/[1+(x/IC50)^s] where: a=maximum range, i.e. 1; s=slope of the dose-response curve; and IC50=the concentration of inhibitor that doubles the clotting time. The calculations are processed on a PC using the software program GraFit Version 3, setting equation equal to: Start at 0, define end=1 (Erithacus Software, Robin Leatherbarrow, Imperial College of Science, London, UK). IC50APTT is defined as the concentration of inhibitor in human plasma that doubles the Activated Partial Thromboplastin Time. Test E Determination of Thrombin Time ex vivo
# [2] = Test G: Determination of in vitro Stability, rat liver microsomes; format: in vitro ADME, Sprague-Dawley rats; conditions: liver microsomes from rats, 37° C., up to 60 min
# Method: (§2) Plasma clearance is estimated in male Sprague Dawley rats. The compound is dissolved in water and administered as a subcutaneous bolus injection at a dose of 4 μmol/kg. Blood samples are collected at frequent intervals up to 5 hours after drug administration. Blood samples are centrifuged and plasma is separated from the blood cells and transferred to vials containing citrate (10% final concentration). 50 μL of plasma samples are precipitated with 100 μL of cold acetonitrile. The samples are centrifuged for 10 minutes at 4000 rpm. 75 μL of the supernatant is diluted with 75 μL of 0.2% formic acid. 10 μL volumes of the resulting solutions are analysed by LC-MS/MS and the concentrations of thrombin inhibitor are determined using standard curves. The area under the plasma concentration-time profile is estimated using the log/linear trapezoidal rule and extrapolated to infinite time. Plasma clearance (CL) of the compound is then determined as CL=Dose/AUC The values are reported in mL/min/kg. Test G Determination of in vitro Stability
# (§3) Liver microsomes are prepared from Sprague-Dawley rats and human liver samples according to internal SOPs. […] The concentration of compound remaining (FINAL CONC) in the 60 min. sample is determined by means of LCMS using a sample collected at zero time as reference (START CONC). The % of degraded thrombin inhibitor is calculated as: […]
# [3] = Test E: Determination of Thrombin Time ex vivo (plasma concentration of thrombin inhibitor after oral or parenteral administration); format: in vivo, rat; conditions: conscious rats, plasma analysed by LC-MS/MS
# From the text: as §1
# The inhibition of thrombin after oral or parenteral administration of the compounds of the invention, dissolved in ethanol:SolutolK:water (5:5:90), is examined in conscious rats which, one or two days prior to the experiment, are equipped with a catheter for blood sampling from the carotid artery. […]
# 50 μL of plasma samples are precipitated with 100 μL of cold acetonitrile. […] 10 μL volumes of the resulting solutions are analysed by LC-MS/MS and the concentrations of thrombin inhibitor are determined using standard curves.
# [4] = Test G: Determination of in vitro Stability, human liver microsomes; format: in vitro ADME; conditions: liver microsomes from humans, 37° C., up to 60 min
# Method: as §2, §3
Compound,IC50 [1] [nM],conversion to the corresponding active inhibitor (free amidine) in liver microsomes [2],oral and/or parenteral bioavailability as the corresponding active inhibitor (free amidine) [3],conversion to the corresponding active inhibitor (free amidine) in liver microsomes [4]
"N=C(N)c1cc(F)c(CNC(=O)[C@@H]2CCN2C(=O)[C@H](O)c2cc(Cl)cc(OC(F)F)c2)c(F)c1 [Example 1, Ph(3-Cl)(5-OCHF2)—(R)CH(OH)C(O)—(S)Aze-Pab(2,6-diF)]",< 1000,,,
"CO/N=C(\N)c1cc(F)c(CNC(=O)[C@@H]2CCN2C(=O)[C@H](O)c2cc(Cl)cc(OC(F)F)c2)c(F)c1 [Example 2, Ph(3-Cl)(5-OCHF2)—(R)CH(OH)C(O)—(S)Aze-Pab(2,6-diF)(OMe)]",,converted to the corresponding active inhibitor (free amidine),exhibit oral and/or parenteral bioavailability in the rat as the corresponding active inhibitor (free amidine),converted to the corresponding active inhibitor (free amidine)
